Columns and labels:
[1] = test system: hepatocytes; conditions: cited from earlier work; for glucose output: glucagon stimulated
[2] = test system: db/db and ob/ob mice; conditions: cited from earlier work
[3] = test system: conscious dogs; conditions: following a glucagon challenge; cited from earlier work
[4] = biological target: T1, Human recombinant liver glycogen phosphorylase a (hrl GPa) (Homo sapiens, UniProt P06737); assay: Glycogen phosphorylase a inhibition, glycogen degradation (multienzyme coupled assay, NADH fluorescence); format: biochemical; conditions: glycogen degradation direction
T1 sequence (P06737 1-847): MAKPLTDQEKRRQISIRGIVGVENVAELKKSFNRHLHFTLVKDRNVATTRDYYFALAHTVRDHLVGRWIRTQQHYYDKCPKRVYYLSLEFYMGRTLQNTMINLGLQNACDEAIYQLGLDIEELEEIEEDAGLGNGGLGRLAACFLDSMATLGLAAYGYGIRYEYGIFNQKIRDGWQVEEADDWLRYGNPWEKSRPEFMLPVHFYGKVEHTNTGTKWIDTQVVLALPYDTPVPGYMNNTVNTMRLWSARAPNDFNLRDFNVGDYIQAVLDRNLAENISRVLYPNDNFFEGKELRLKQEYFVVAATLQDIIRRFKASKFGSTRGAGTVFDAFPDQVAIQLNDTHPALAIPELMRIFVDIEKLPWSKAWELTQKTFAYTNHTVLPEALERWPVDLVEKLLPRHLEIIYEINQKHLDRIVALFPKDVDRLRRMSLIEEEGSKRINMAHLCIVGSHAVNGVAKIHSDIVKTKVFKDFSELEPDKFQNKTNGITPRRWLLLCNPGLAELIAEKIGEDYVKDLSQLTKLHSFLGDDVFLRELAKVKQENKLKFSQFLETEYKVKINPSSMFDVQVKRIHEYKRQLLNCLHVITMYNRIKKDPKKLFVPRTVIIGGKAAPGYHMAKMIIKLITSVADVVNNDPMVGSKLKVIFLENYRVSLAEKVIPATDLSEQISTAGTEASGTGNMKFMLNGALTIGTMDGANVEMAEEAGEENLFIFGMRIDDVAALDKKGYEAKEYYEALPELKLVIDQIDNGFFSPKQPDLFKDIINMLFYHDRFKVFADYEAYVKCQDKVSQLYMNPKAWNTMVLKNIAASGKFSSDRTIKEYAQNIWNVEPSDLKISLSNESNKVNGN
Protocol: The activity of the compounds is alternatively determined by measuring the inhibitory effect of the compounds on glycogen degradation, the production of glucose-1-phosphate from glycogen is monitored by the multienzyme coupled assay, as described in EP 0 846 464 A2, general method of Pesce et al (Pesce, M A, Bodourian, S H, Harris, R C, and Nicholson, J F (1977) Clinical Chemistry 23, […]). The reactions were in 384well microplate format in a volume of 50 μl. The change in fluorescence due to the conversion of the co-factor NAD to NADH is measured at 340 nm excitation, 465 nm emission in a Tecan Ultra Multifunctional Microplate Reader. The reaction is in 50 mM HEPES, 3.5 mM KH2PO4, 2.5 mM MgCl2, 2.5 mM ethylene glycol-bis(b-aminoethyl ether) N,N,N′N′tetraacetic acid, 100 mM KCl, 8 mM D-(+)-glucose pH7.2, containing 0.5 mM dithiothreitol, the assay buffer solution. Human recombinant liver glycogen phosphorylase a (hrl GPa) 20 nM is pre-incubated in assay buffer solution with 6.25 mM NAD, 1.25 mg type III glycogen at 1.25 mg ml^−1 the reagent buffer, for 30 minutes. […] The non-inhibited activity of GPa is measured in the presence of 10 μl 5% DMSO in assay buffer solution and maximum inhibition measured in the presence of 5 mgs ml^−1 N-ethylmaleimide. […] Relative Fluoresence Units (RFUs) are measured at 340 nm excitation, 465 nm emission. […]

Row | SMILES | glucagon stimulated glycogenolysis [1] | glucose output [1] | plasma glucose concentration [2] | arterial plasma glucose [3] | hepatic glucose output [3] | IC50 [4] [µM]
1 | O=C(N[C@@H](Cc1ccc(F)cc1)C(=O)N1CCC(O)CC1)c1cc2cc(Cl)ccc2[nH]1 [CP320626] | reduce | reduce | reduced, in a dose related manner |  |  | 
2 | CN(C)C(=O)[C@H](O)[C@H](Cc1ccccc1)NC(=O)c1cc2cc(Cl)ccc2[nH]1 [CP91149] | reduce | reduce | reduced, in a dose related manner |  |  | 
3 | CCN1C(C)=C(C(=O)OC(C)C)C(c2ccccc2Cl)C2=C1COC2=O (stereo not drawn) [Bay R 3401] |  |  |  | reduced significantly | reduced significantly | 
4 | Cc1csc(NC(=O)CN2C(=O)C(NC(=O)c3cc4cc(Cl)ccc4[nH]3)Cc3ccccc32)n1 (stereo not drawn) [Example 14, 5-chloro-N-(1-{2-[(4-methyl-1,3-thiazol-2-yl)amino]-2-oxoethyl}-2-oxo-1,2,3,4-tetrahydroquinolin-3-yl)-1H-indole-2-carboxamide] |  |  |  |  |  | 4.6
